One assay relates to MIA-PACA-2 cells. Description: Cell proliferation assay, MIA-PACA-2 cells (Cell-titer Glo). The assay is classed as cell-based. Particulars: Homo sapiens, 96 h incubation. On the procedure: (§1) Pave the MIA-PACA-2 cells into a 96-well ultra-low adsorption plate at 600 cells, 160 μL/well. After incubating overnight, compound solutions of gradient concentration was prepared, and added 40 μL of DMSO solution of the test compound of each concentration to the cells of each well. The final concentration of the compound is 10000, 2000, 400, 80, 16, 3.2, 0.64, 0.12, 0.025, 0 nM (the final concentration of DMSO is 0.25%). Incubated for 96 h at 37° C. and 5% CO2. 50 μL of Cell-titer Glo working solution was added to each well, shaked and mixed, and incubated at room temperature for 10 minutes. The multi-functional microplate reader read the luminescence value, and converted the luminescence value reading into inhibition percentage.
(§2) Inhibition percentage=(maximum value−reading)/(maximum value−minimum value)*100.
(§3) The “maximum value” was the DMSO control, the “minimum value” indicates the cell-free control group.
(§4) Graphpad Prism software was used to perform curve fitting and obtain IC50 value.
Refer to Table 3 for the IC50 data of some compounds in the examples inhibiting MIA-PACA-2 cells.

The test system of the next assay is H358 cells. Description: Cell proliferation assay, H358 cells (Cell-titer Glo). The assay is classed as cell-based. The note with it: Homo sapiens, NCI-H358, 96 h incubation. On the procedure:
as §1, with “the H358” for “the MIA-PACA-2”, “cells on” for “cells into”, “plate with 2000 cells and 190” for “plate at 600 cells, 160”, “added 10” for “added 40”, “10000, 3333.3, 1111.1, 370.4, 123.5, 41.2, 13.7, 4.6, 1.5,” for “10000, 2000, 400, 80, 16, 3.2, 0.64, 0.12, 0.025,”
as §2, §3, §4
Refer to table 3 for the IC50 data of some compounds in the Examples for inhibiting H358 cells.

SMILES strings stand for the structures.

The IC50 is the midpoint of a concentration-inhibition curve. Consider `C=CC(=O)N1CC2(CCN(c3nc(C4CCN(C)CC4)nc4c(OCCOC)c(C5CC5)c(C5CC5)cc34)CC2)C1` [Example 23], for which the IC50 with MIA-PACA-2 cells turned out to be 647 nM; with H358 cells, 1700 nM.

Molecule `C=CC(=O)N1CC2(CCN(c3nc(C4CCN(C)CC4)nc4c(OCC(F)(F)F)c(-c5ccc6cn[nH]c6c5)c(C5CC5)cc34)CC2)C1` [Example 19] gave an IC50 in the assay on MIA-PACA-2 cells of 2290 nM.

For `C=CC(=O)N1CC2(CCN(c3nc(C4CCN(C5COC5)CC4)nc4c(OCC(F)(F)F)c(-c5c(C)ccc6[nH]ncc56)c(C=C)cc34)CC2)C1` [Example 65, 1-(7-(7-(5-methyl-1H-indazol-4-yl)-2-(1-(oxacyclobutan-3-yl)piperidin-4-yl)-8-(2,2,2-trifluoroethoxy)-6-vinylquinazolin-4-yl)-2,7-diazspiro [3.5]nonan-2-yl) propyl-2-en-1-one], the figures for the IC50 in the assay on MIA-PACA-2 cells and in the assay on H358 cells were 8.9 nM and 4.4 nM, respectively.

For the molecule `C=CC(=O)N1CC2(CCN(c3nc(C4CCN(C)CC4)nc4c(OCC(C)(C)O)c(-c5c(C)ccc6[nH]ncc56)c(C=C)cc34)CC2)C1` [Example 47, 1-(7-(8-(2-hydroxy-2-methylpropoxy)-7-(5-methyl-1H-indazol-4-yl)-2-(1-methylpiperidin-4-yl)-6-vinylquinazoline-4-yl)-2,7-diazaspiro[3.5]nonan-2-yl)prop-2-en-1-one], the IC50 turned out to be 47.7 nM in the assay with MIA-PACA-2 cells and 39 nM in the assay with H358 cells.

On to `C=CC(=O)N1CC2(CCN(c3nc(C4CCN(CC(=O)C(C)(C)C)CC4)nc4c(OCC(F)(F)F)c(-c5c(C)ccc6[nH]ncc56)c(C=C)cc34)CC2)C1` [Example 70, 1-(4-(4-(2-acryloyl-2,7-diazspiro [3.5]nonan-7-yl)-7-(5-methyl-1H-indazole-4-yl)-8-(2,2,2-trifluoroethoxy)-6-vinylquinazolin-2-yl)piperidin-1-yl)-3,3-dimethylbutane-2-one], for which the IC50 is 13.7 nM in the assay with MIA-PACA-2 cells and 15.5 nM in the assay on H358 cells.

Take `C=CC(=O)N1CC2(CCN(c3nc(C4CCN(C)CC4)nc4c(OCC(F)(F)F)c(-c5ccc6[nH]ncc6c5)c(C5CC5)cc34)CC2)C1` [Example 17]: the IC50 is 1540 nM with MIA-PACA-2 cells and 8440 nM in the assay on H358 cells.

As to `C=CC(=O)N1CC2(CCN(c3nc(C4CCN(CC5CC(F)(F)C5)CC4)nc4c(OCC(F)(F)F)c(-c5c(C)ccc6[nH]ncc56)c(C=C)cc34)CC2)C1` [Example 76, 1-(7-(2-(1-((3,3-difluorocyclobutyl)methyl)piperidin-4-yl)-7-(5-methyl-1H-indazole-4-yl)-8-(2,2,2-trifluoroethoxy)-6-vinylquinazolin-4-yl)-2,7-diazspiro [3.5]nonan-2-yl) propyl-2-en-1-one], the IC50 came to 21.4 nM with MIA-PACA-2 cells and 19.3 nM in the assay on H358 cells.

In the case of `C=Cc1cc2c(N3CCC4(CC3)CN(C(=O)C(=C)F)C4)nc(C3CCN(CCC#N)CC3)nc2c(OCC(F)(F)F)c1-c1c(C)ccc2[nH]ncc12` [Example 86, 3-(4-(4-(2-(2-Fluoroacryloyl)-2,7-diazspiro [3.5]nonan-7-yl)-7-(5-methyl-1H-indazole-4-yl)-8-(2,2,2-trifluoroethoxy)-6-vinylquinazolin-2-yl)piperidin-1-yl) propionitrile], the IC50 in the assay on MIA-PACA-2 cells amounted to 208 nM; in the assay with H358 cells it was 85.8 nM.

For `C=CC(=O)N1CC2(CCN(c3nc(C4CCN(CCS(C)(=O)=O)CC4)nc4c(OCC(F)(F)F)c(-c5c(C)ccc6[nH]ncc56)c(C=C)cc34)CC2)C1` [Example 57, 1-(7-(7-(5-methyl-1H-indazol-4-yl)-2-(1-(2-(methylsulfonyl)ethyl)piperidine-4-yl)-8-(2,2,2-trifluoroethoxy)-6-vinylquinazolin-4-yl)-2,7-diazaspiro[3.5]nonan-2-yl) prop-2-en-1-one], the IC50 is 6.8 nM in the assay on MIA-PACA-2 cells and 7.3 nM in the assay with H358 cells.

Consider `C=CC(=O)N1CC2(C1)CN(c1nc(C3CCN(C)CC3)nc3c(OCC(F)(F)F)c(-c4c(C)ccc5[nH]ncc45)c(C=C)cc13)C2` [Example 50, 1-(6-(7-(5-methyl-1H-indazol-4-yl)-2-(1-methylpiperidin-4-yl)-8-(2,2,2-trifluoroethoxy)-6-vinylquinazolin-4-yl)-2,6-diazaspiro[3.3]heptane-2-yl)prop-2-en-1-one], for which the IC50 in the assay on MIA-PACA-2 cells stood at 278 nM; in the assay with H358 cells, 243 nM.

Consider `C=CC(=O)N1CC2(CCN(c3nc(C4CCN(CC(C)(C)O)CC4)nc4c(OCC(F)(F)F)c(-c5c(C)ccc6[nH]ncc56)c(CC)cc34)CC2)C1` [Example 36, 1-(7-(6-ethyl-2-(1-(2-hydroxy-2-methylpropyl)piperidin-4-yl)-7-(5-methyl-1H-indazol-4-yl)-8-(2,2,2-trifluoroethoxy)quinazolin-4-yl)-2,7-diazaspiro[3.5]nonan-2-yl) prop-2-en-1-one], for which the IC50 in the assay with MIA-PACA-2 cells was found to be 10.1 nM; in the assay with H358 cells, 10.6 nM.

Take `C=CC(=O)N1CC2(CCN(c3nc(C4CCN(C5COC5)CC4)nc4c(OCC(F)(F)F)c(-c5c(C)ccc6[nH]ncc56)c(CC)cc34)CC2)C1` [Example 37]: the IC50 with MIA-PACA-2 cells is 23.4 nM; in the assay with H358 cells, 18.4 nM.

Regarding `C=CC(=O)N1CC2(CCN(c3nc(C4CCN(C)CC4)nc4c(OCCOC)c(-c5c(C)ccc6[nH]ncc56)c(CC)cc34)CC2)C1` [Example 30], the IC50 amounted to 171 nM in the assay with MIA-PACA-2 cells and 60.5 nM in the assay with H358 cells.

Take `Cc1ccc2[nH]ncc2c1-c1c(Cl)cc2c(N3CCC4(CC3)CN(C(=O)/C=C/CN(C)C)C4)nc(C3CCN(C)CC3)nc2c1OCC(F)(F)F` [Example 87, (E)-1-(7-(6-chloro-7-(5-methyl-1H-indazol-4-yl)-2-(1-methylpiperidine-4-yl)-8-(2,2,2-trifluoroethoxy)quinazolin-4-yl)-2,7-diazaspiro[3.5]nonan-2-yl)-4-(dimethylamino) but-2-en-1-one]: the IC50 in the assay with MIA-PACA-2 cells is 2190 nM; in the assay with H358 cells it was 1940 nM.

On to `C=CC(=O)N1CC2(CCN(c3nc(C4CN(C5CCOCC5)C4)nc4c(OCC(F)(F)F)c(-c5c(C)ccc6[nH]ncc56)c(CC)cc34)CC2)C1` [Example 42, 1-(7-(6-ethyl-7-(5-methyl-1H-indazole-4-yl)-2-(1-(tetrahydro-2H-pyran-4-yl)azacyclobutane-3-yl)-8-(2,2,2-trifluoroethoxy)quinazolin-4-yl)-2,7-diazspiro [3.5]nonan-2-yl) propyl-2-en-1-one], for which the IC50 in the assay with MIA-PACA-2 cells amounted to 29.6 nM; with H358 cells, 19.6 nM.

Turning to `C=CC(=O)N1CC2(CCN(c3nc(C4CCN(C)CC4)nc4c(OCC)c(-c5c(C)ccc6[nH]ncc56)c(C=C)cc34)CC2)C1` [Example 11, 1-(7-(8-ethoxy-7-(5-methyl-1H-indazol-4-yl)-2-(1-methylpiperidin-4-yl)-6-vinylquinazolin-4-yl)-2,7-diazaspiro[3.5]nonan-2-yl)prop-2-en-1-one], the IC50 turned out to be 4.8 nM in the assay on MIA-PACA-2 cells and 4.7 nM in the assay on H358 cells.

As for `C=CC(=O)N1CC2(CCN(c3nc(C4CCN(CC)CC4)nc4c(OCC(F)(F)F)c(-c5c(C)ccc6[nH]ncc56)c(C=C)cc34)CC2)C1` [Example 9, 1-(7-(2-(1-ethylpiperidin-4-yl)-7-(5-methyl-1H-indazol-4-yl)-8-(2,2,2-trifluoroethoxy)-6-vinylquinazolin-4-yl)-2,7-diazaspiro[3.5]nonan-2-yl)prop-2-en-1-one], the IC50 with MIA-PACA-2 cells is 2.1 nM; with H358 cells, 3.7 nM.

Consider `C=CC(=O)N1CC2(CCN(c3nc(C4CCN(C)CC4)nc4c(OCC(F)(F)F)c(-c5c(C)cnc6[nH]ncc56)c(C=C)cc34)CC2)C1` [Example 53, 1-(7-(7-(5-methyl-1H-pyrazolo[3,4-b]pyridin-4-yl)-2-(1-methylpiperidine-4-yl)-8-(2,2,2-trifluoroethoxy)-6-vinylquinazolin-4-yl)-2,7-diazaspiro[3.5]nonan-2-yl)prop-2-en-1-one], for which the IC50 with MIA-PACA-2 cells was determined as 105 nM; with H358 cells it was 163 nM.

In the case of `C=CC(=O)N1CC2(CCN(c3nc(C4CCN(C)CC4)nc4c(OCC(F)(F)F)c(-c5cc(F)cc(OC)c5)c(C5CC5)cc34)CC2)C1` [Example 21], the IC50 in the assay on H358 cells came out at 2720 nM.

`C=CC(=O)N1CC2(CCN(c3nc(C4CCN(C)CC4)nc4c(C)c(-c5c(C)ccc6[nH]ncc56)c(C=C)cc34)CC2)C1` [Example 15, 1-(7-(8-methyl-7-(5-methyl-1H-indazol-4-yl)-2-(1-methylpiperidin-4-yl)-6-vinylquinazolin-4-yl)-2,7-diazaspiro[3.5]nonan-2-yl)prop-2-en-1-one] registered an IC50 with MIA-PACA-2 cells of 50.5 nM.

Regarding `C=CC(=O)N1CC2(CCN(c3nc(C4CCN(C)CC4)nc4c(Oc5c(C)ccc6[nH]ncc56)cccc34)CC2)C1` [Example 54], the midpoint of inhibition in the assay with MIA-PACA-2 cells, the IC50, lay at 9600 nM.

In the assay on MIA-PACA-2 cells, `C=CC(=O)N1CC2(CCN(c3nc(C4CCN(C)CC4)nc4c(OCC)c(-c5c(C)ccc6[nH]ncc56)c(Cl)cc34)CC2)C1` [Example 10, 1-(7-(6-chloro-8-ethoxy-7-(5-methyl-1H-indazol-4-yl)-2-(1-methylpiperidine-4-yl)-quinazolin-4-yl)-2,7-diazaspiro[3.5]nonan-2-yl)prop-2-en-1-one] had an IC50 of 25 nM.

The record behind these values is US20230219956A1 (BETTA PHARMACEUTICALS CO.,LTD, priority 2019, published 2023).
